Measured values published in ChEMBL document CHEMBL3045140, “Synthesis, docking studies and antioxidant activity of some chalcone and aurone derivatives” (Med Chem Res, 2013).
≈ marks a conversion by molar mass, not a printed value.

Tests used:
Assay type in all cases: functional
[1] = Antioxidant activity assessed as H2O2 scavenging activity after 10 min by spectrophotometeric analysis
[2] = system: Radical scavenging activity; test: Antioxidant activity assessed as DPPH free radical scavenging activity after 30 min by spectrophotometeric analysis
[3] = Antioxidant activity assessed as iron chelating activity after 10 min by spectrophotometeric analysis
[4] = Antioxidant activity assessed as reduction of Fe3+ to Fe2+ after 20 min by spectrophotometeric analysis

| SMILES | Activity [1] | IC50 [1] | Activity [2] | IC50 [2] | IC50 [3] | IC50 [4] |
| --- | --- | --- | --- | --- | --- | --- |
| COc1ccc(/C=C2\Oc3cc(O)ccc3C2=O)cc1OC | Dose-dependent effect | 248.16 µg/mL (≈ 832 µM) | Dose-dependent effect | 173.29 µg/mL (≈ 581 µM) | 213.83 µg/mL (≈ 717 µM) | 168.23 µg/mL (≈ 564 µM) |
| O=C(/C=C/c1ccc(Cl)cc1)c1ccc(O)cc1O | Dose-dependent effect | 129.02 µg/mL (≈ 470 µM) | Dose-dependent effect | 264.95 µg/mL (≈ 964 µM) | 159.97 µg/mL (≈ 582 µM) | 155.87 µg/mL (≈ 567 µM) |
| CN(C)c1ccc(/C=C/C(=O)c2cc(O)ccc2O)cc1 | Dose-dependent effect | 153.85 µg/mL (≈ 543 µM) | Dose-dependent effect | 24.32 µg/mL (≈ 85.8 µM) | 90.81 µg/mL (≈ 321 µM) | 47.79 µg/mL (≈ 169 µM) |
| O=C1/C(=C/c2ccc(Cl)cc2)Oc2cc(O)ccc21 [6-HYDROXY-4'-CHLORO AURONE] | Dose-dependent effect | 178.13 µg/mL (≈ 653 µM) | Dose-dependent effect | 266.12 µg/mL (≈ 976 µM) | 179.18 µg/mL (≈ 657 µM) | 188.31 µg/mL (≈ 691 µM) |
| COc1ccc(/C=C/C(=O)c2cc(O)ccc2O)cc1OC | Dose-dependent effect | 89.59 µg/mL (≈ 298 µM) | Dose-dependent effect | 132.22 µg/mL (≈ 440 µM) | 159.22 µg/mL (≈ 530 µM) | 111.79 µg/mL (≈ 372 µM) |
| COc1ccc(/C=C/C(=O)c2ccc(O)cc2O)cc1OC | Dose-dependent effect | 70.1 µg/mL (≈ 233 µM) | Dose-dependent effect | 35.2 µg/mL (≈ 117 µM) | 166.73 µg/mL (≈ 555 µM) | 134.45 µg/mL (≈ 448 µM) |
| O=C1O[C@H]([C@@H](O)CO)C(O)=C1O [ASCORBIC ACID] | – | 445.92 µg/mL (≈ 2530 µM) | – | 98.77 µg/mL (≈ 561 µM) | 126.12 µg/mL (≈ 716 µM) | 53.24 µg/mL (≈ 302 µM) |
| COc1ccc(/C=C2\Oc3ccc(O)cc3C2=O)cc1OC [5-HYDROXY-3',4'-DIMETHOXY AURONE] | Dose-dependent effect | 206.57 µg/mL (≈ 693 µM) | Dose-dependent effect | 222.19 µg/mL (≈ 745 µM) | 185.05 µg/mL (≈ 620 µM) | 151.43 µg/mL (≈ 508 µM) |
| CN(C)c1ccc(/C=C2\Oc3cc(O)ccc3C2=O)cc1 | Dose-dependent effect | 193.91 µg/mL (≈ 689 µM) | Dose-dependent effect | 109.92 µg/mL (≈ 391 µM) | 179.33 µg/mL (≈ 637 µM) | 70.1 µg/mL (≈ 249 µM) |
| CN(C)c1ccc(/C=C/C(=O)c2ccc(O)cc2O)cc1 | Dose-dependent effect | 135.88 µg/mL (≈ 480 µM) | Dose-dependent effect | 65.8 µg/mL (≈ 232 µM) | 140.16 µg/mL (≈ 495 µM) | 53.6 µg/mL (≈ 189 µM) |
| CN(C)c1ccc(/C=C2\Oc3ccc(O)cc3C2=O)cc1 | Dose-dependent effect | 174.07 µg/mL (≈ 619 µM) | Dose-dependent effect | 243 µg/mL (≈ 864 µM) | 149.98 µg/mL (≈ 533 µM) | 64.16 µg/mL (≈ 228 µM) |
